Measured values taken from ChEMBL document CHEMBL4138123, “Design, synthesis and biological evaluation of novel pyrazolochalcones as potential modulators of PI3K/Akt/mTOR pathway and inducers of apoptosis in breast cancer cells” (Eur J Med Chem, 2017).

How the values were obtained:
[1] = test system: SNB-19; test: Cytotoxicity against human SNB19 cells assessed as cell growth at 10 uM after 48 hrs by sulforhodamine B assay relative to control; format: functional; conditions: SNB-19, 48 h, read-out: Activity
[2] = test system: HCT-116; test: Cytotoxicity against human HCT116 cells assessed as cell growth at 1 uM after 48 hrs by sulforhodamine B assay relative to control; format: functional; conditions: HCT-116, 48 h, read-out: Activity
[3] = test system: U-251; test: Cytotoxicity against human U251 cells assessed as growth inhibition after 48 hrs by sulforhodamine B assay; format: functional; conditions: U-251, 48 h
[4] = test system: MCF7; test: Cytotoxicity against human MCF7 cells assessed as growth inhibition after 48 hrs by MTT assay; format: functional, cell-based; conditions: MCF7, 48 h
[5] = test system: U-251; test: Cytotoxicity against human U251 cells assessed as cell growth at 100 uM after 48 hrs by sulforhodamine B assay relative to control; format: functional; conditions: U-251, 48 h, read-out: Activity
[6] = test system: NCI-H522; test: Cytotoxicity against human NCI-H522 cells assessed as cell growth at 1 uM after 48 hrs by sulforhodamine B assay relative to control; format: functional; conditions: NCI-H522, 48 h, read-out: Activity
[7] = test system: UO-31; test: Cytotoxicity against human UO31 cells assessed as cell growth at 100 uM after 48 hrs by sulforhodamine B assay relative to control; format: functional; conditions: UO-31, 48 h, read-out: Activity
[8] = test system: CCRF-CEM; test: Cytotoxicity against human CCRF-CEM cells assessed as cell growth at 10 uM after 48 hrs by sulforhodamine B assay relative to control; format: functional; conditions: read-out: Activity
[9] = test system: T47D; test: Cytotoxicity against human T47D cells assessed as cell growth at 0.01 uM after 48 hrs by sulforhodamine B assay relative to control; format: functional; conditions: read-out: Activity
[10] = test system: KM12; test: Cytotoxicity against human KM12 cells assessed as cell growth at 0.1 uM after 48 hrs by sulforhodamine B assay relative to control; format: functional; conditions: KM12, 48 h, read-out: Activity
[11] = test system: SK-MEL-5; test: Cytotoxicity against human SK-MEL-5 cells assessed as cell growth at 1 uM after 48 hrs by sulforhodamine B assay relative to control; format: functional; conditions: SK-MEL-5, 48 h, read-out: Activity
[12] = test system: OVCAR-5; test: Cytotoxicity against human OVCAR5 cells assessed as cell growth at 10 uM after 48 hrs by sulforhodamine B assay relative to control; format: functional; conditions: OVCAR-5, 48 h, read-out: Activity
[13] = test system: OVCAR-4; test: Cytotoxicity against human OVCAR4 cells assessed as cell growth at 100 uM after 48 hrs by sulforhodamine B assay relative to control; format: functional; conditions: OVCAR-4, 48 h, read-out: Activity
[14] = test system: SF-268; test: Cytotoxicity against human SF268 cells assessed as cell growth at 100 uM after 48 hrs by sulforhodamine B assay relative to control; format: functional; conditions: SF-268, 48 h, read-out: Activity
[15] = test system: NCI-H460; test: Cytotoxicity against human NCI-H460 cells assessed as growth inhibition after 48 hrs by sulforhodamine B assay; format: functional; conditions: NCI-H460, 48 h
[16] = test system: HCT-15; test: Cytotoxicity against human HCT15 cells assessed as cell growth at 1 uM after 48 hrs by sulforhodamine B assay relative to control; format: functional; conditions: HCT-15, 48 h, read-out: Activity
[17] = test system: COLO 205; test: Cytotoxicity against human COLO205 cells assessed as cell growth at 10 uM after 48 hrs by sulforhodamine B assay relative to control; format: functional; conditions: COLO 205, 48 h, read-out: Activity
[18] = test system: MDA-MB-435; test: Cytotoxicity against human MDA-MB-435 cells assessed as cell growth at 0.01 uM after 48 hrs by sulforhodamine B assay relative to control; format: functional; conditions: MDA-MB-435, 48 h, read-out: Activity
[19] = test system: HL-60(TB); test: Cytotoxicity against human HL-60(TB) cells assessed as cell growth at 0.01 uM after 48 hrs by sulforhodamine B assay relative to control; format: functional; conditions: HL-60, 48 h, read-out: Activity
[20] = test system: A549; test: Cytotoxicity against human A549/ATCC cells assessed as cell growth at 1 uM after 48 hrs by sulforhodamine B assay relative to control; format: functional; conditions: A549, 48 h, read-out: Activity
[21] = test system: OVCAR-5; test: Cytotoxicity against human OVCAR5 cells assessed as cell growth at 100 uM after 48 hrs by sulforhodamine B assay relative to control; format: functional; conditions: OVCAR-5, 48 h, read-out: Activity
[22] = test system: Hs-578T; test: Cytotoxicity against human Hs 578T cells assessed as cell growth at 100 uM after 48 hrs by sulforhodamine B assay relative to control; format: functional; conditions: read-out: Activity
[23] = test system: SK-MEL-5; test: Cytotoxicity against human SK-MEL-5 cells assessed as growth inhibition after 48 hrs by sulforhodamine B assay; format: functional; conditions: SK-MEL-5, 48 h
[24] = test system: SN12C; test: Cytotoxicity against human SN12C cells assessed as cell growth at 0.1 uM after 48 hrs by sulforhodamine B assay relative to control; format: functional; conditions: read-out: Activity
[25] = test system: OVCAR-3; test: Cytotoxicity against human OVCAR3 cells assessed as cell growth at 0.01 uM after 48 hrs by sulforhodamine B assay relative to control; format: functional; conditions: OVCAR-3, 48 h, read-out: Activity
[26] = test system: NCI-H226; test: Cytotoxicity against human NCI-H226 cells assessed as growth inhibition after 48 hrs by sulforhodamine B assay; format: functional; conditions: NCI-H226, 48 h
[27] = test system: CCRF-CEM; test: Cytotoxicity against human CCRF-CEM cells assessed as cell growth at 0.1 uM after 48 hrs by sulforhodamine B assay relative to control; format: functional; conditions: read-out: Activity
[28] = test system: NCI/ADR-RES; test: Cytotoxicity against human NCI/ADR-RES cells assessed as cell growth at 0.01 uM after 48 hrs by sulforhodamine B assay relative to control; format: functional; conditions: read-out: Activity
[29] = test system: MCF7; test: Cytotoxicity against human MCF7 cells assessed as cell growth at 1 uM after 48 hrs by sulforhodamine B assay relative to control; format: functional; conditions: MCF7, 48 h, read-out: Activity
[30] = test system: M14; test: Cytotoxicity against human M14 cells assessed as growth inhibition after 48 hrs by sulforhodamine B assay; format: functional; conditions: M14, 48 h
[31] = test system: SW-620; test: Cytotoxicity against human SW620 cells assessed as cell growth at 1 uM after 48 hrs by sulforhodamine B assay relative to control; format: functional; conditions: SW-620, 48 h, read-out: Activity
[32] = test system: 786-0; test: Cytotoxicity against human 786-0 cells assessed as cell growth at 1 uM after 48 hrs by sulforhodamine B assay relative to control; format: functional; conditions: 786-0, 48 h, read-out: Activity
[33] = test system: MDA-MB-231; test: Cytotoxicity against human MDA-MB-231 cells assessed as cell growth at 10 uM after 48 hrs by sulforhodamine B assay relative to control; format: functional; conditions: MDA-MB-231, 48 h, read-out: Activity
[34] = test system: NCI/ADR-RES; test: Cytotoxicity against human NCI/ADR-RES cells assessed as cell growth at 1 uM after 48 hrs by sulforhodamine B assay relative to control; format: functional; conditions: read-out: Activity
[35] = test system: PC-3; test: Cytotoxicity against human PC3 cells assessed as cell growth at 0.01 uM after 48 hrs by sulforhodamine B assay relative to control; format: functional; conditions: PC-3, 48 h, read-out: Activity

## COc1ccc(-c2cc(/C=C/C(=O)c3ccc(N)cc3)[nH]n2)cc1OC
[1]
  growth at 10 µM: 31%
[2]
  growth at 1 µM: 87%
[3]
  GI50: 1.74 µM
  LC50: 7.69 µM
  TGI: 3.66 µM
[4]
  IC50: 1.9 µM
[5]
  growth at 100 µM: -96%
[6]
  growth at 1 µM: 87%
[7]
  growth at 100 µM: -85%
[8]
  growth at 10 µM: -8%
[9]
  growth at 0.01 µM: 85%
[10]
  growth at 0.1 µM: 104%
[11]
  growth at 1 µM: 94%
[12]
  growth at 10 µM: -10%
[13]
  growth at 100 µM: -98%
[14]
  growth at 100 µM: -80%
[15]
  GI50: 2.03 µM
  LC50: 10.6 µM
  TGI: 4.53 µM
[16]
  growth at 1 µM: 73%
[17]
  growth at 10 µM: -79%
[18]
  growth at 0.01 µM: 91%
[19]
  growth at 0.01 µM: 104%
[20]
  growth at 1 µM: 89%
[21]
  growth at 100 µM: -81%
[22]
  growth at 100 µM: 4%
[23]
  GI50: 3.16 µM
  LC50 (concentration killing 50% of cells): 36.1 µM
  TGI: 11.5 µM
[24]
  growth at 0.1 µM: 99%
[25]
  growth at 0.01 µM: 106%
[26]
  GI50: 2.32 µM
  LC50 (concentration killing 50% of cells): 76.2 µM
  TGI: 7.38 µM
[27]
  growth at 0.1 µM: 97%
[28]
  growth at 0.01 µM: 102%
[29]
  growth at 1 µM: 81%
[30]
  GI50: 2.28 µM
  LC50 (concentration killing 50% of cells): 15 µM
  TGI: 5.11 µM
[31]
  growth at 1 µM: 95%
[32]
  growth at 1 µM: 87%
[33]
  growth at 10 µM: 24%
[34]
  growth at 1 µM: 99%
[35]
  growth at 0.01 µM: 95%
